{
  "source": "patent US11897961B2",
  "about": "“Anti-CD123 antibodies and conjugates and derivatives thereof” (IMMUNOGEN, INC., priority 2015, dated 2024)",
  "key": {"[1]": {"system": "EOL-1 cells", "experiment": "EOL-1 subcutaneous model in athymic nude mice, third study"}, "[2]": {"system": "normal blood cells / normal progenitor cells versus AML progenitors", "experiment": "Cytotoxicity on normal blood / normal progenitor cells versus AML progenitors", "assay_type": "cell-based, human", "settings": "FIG. 11E and FIG. 19"}, "[3]": {"system": "TF-1 cells", "experiment": "Proliferation of TF-1 cells grown in the presence of GM-CSF (IL-3-dependence control)", "assay_type": "cell-based, human", "settings": "GM-CSF 2 ng/mL", "procedure": "(§1) The ability of anti-CD123 antibodies to inhibit IL3-mediated signaling and proliferation was examined in vitro using the erythroleukemia cell line TF-1 that can proliferate only in the presence of one of the following growth factors, either IL-3 or GM-CSF. TF-1 cells were cultured in the complete RPMI medium (RPMI-1640, 10% fetal bovine serum and 50 μg/mL gentamicin sulfate; all reagents were from Invitrogen) supplemented with GM-CSF (2 ng/mL). Prior to setting up the proliferation assays, the cells were washed and then starved of the growth factors overnight. […] TF-1 cells were plated at 6,000 cells per well in the complete RPMI medium in either the presence or absence of 10 μg/mL of an anti-CD123 antibody. A growth factor, either IL-3 (1 ng/mL) or GM-CSF (2 ng/mL), was added to the cells to initiate cell proliferation. […] The relative numbers of viable cells in each well were determined by the colorimetric WST-8 assay (Dojindo Molecular Technologies, Inc., Rockville, MD, US). WST-8 is reduced by dehydrogenases in viable cells to an orange formazan product that is soluble in tissue culture medium. The amount of formazan produced is directly proportional to the number of viable cells. […] Then the absorbance was measured on a plate-reader spectrophotometer in the dual wavelength mode 450 nm/650 nm, and the absorbance at the 650 nm (non-specific light scattering by cells) was subtracted from that at the 450 nm."}, "[4]": {"system": "TF-1 cells", "experiment": "Inhibition of IL-3-dependent proliferation of TF-1 cells (WST-8)", "assay_type": "cell-based, human", "settings": "dose-response", "procedure": "as §1, with “US).” for “US). WST-8 is reduced by dehydrogenases in viable cells to an orange formazan product that is soluble in tissue culture medium. The amount of formazan produced is directly proportional to the number of viable cells.”\nTF-1 cells were plated at 6,000 cells per well in 100 μL culture medium. […] Relative cell number in each well was determined by WST-8 assay as described above. […]"}},
  "data": [
    {"molecule": "Nc1ncn([C@@H]2O[C@H](CO)[C@@H](O)[C@H]2O)c(=O)n1", "note": "[Azacitidine]", "values": [
      {"measurement": "% T/C (Day 16)", "setting": "[1]; 3.75 mg/kg, q3d × 5, i.p.", "value": 59, "unit": "%"},
      {"measurement": "CR", "setting": "[1]; 3.75 mg/kg, q3d × 5, i.p.", "value": "0/8"},
      {"measurement": "PR", "setting": "[1]; 3.75 mg/kg, q3d × 5, i.p.", "value": "0/8"},
      {"measurement": "Result", "setting": "[1]; 3.75 mg/kg, q3d × 5, i.p.", "value": "Inactive"}
    ]},
    {"molecule": "Nc1ccn([C@@H]2O[C@H](CO)[C@@H](O)[C@@H]2O)c(=O)n1", "note": "[Cytarabine]", "values": [
      {"measurement": "% T/C (Day 16)", "setting": "[1]; 75 mg/kg, qd × 5, i.p.", "value": 84, "unit": "%"},
      {"measurement": "CR", "setting": "[1]; 75 mg/kg, qd × 5, i.p.", "value": "0/8"},
      {"measurement": "PR", "setting": "[1]; 75 mg/kg, qd × 5, i.p.", "value": "0/8"},
      {"measurement": "Result", "setting": "[1]; 75 mg/kg, qd × 5, i.p.", "value": "Inactive"}
    ]},
    {"molecule": "gemtuzumab ozogamicin [Mylotarg]", "values": [
      {"measurement": "fold difference in cytotoxicity between normal blood/progenitor cells and AML progenitor cells", "setting": "[2]", "value": 10, "unit": "fold"}
    ]},
    {"molecule": "muCD123-14: murine anti-CD123 monoclonal antibody, HCVR SEQ ID NO: 30, LCVR SEQ ID NO: 31 (antibody, V domains shown) VH: EVKLVESGGDLVKPGGSLKLSCAASGFTFSNYAMSWVRQNSEKRLEWVATINSGGSFTYYPDSVKGRFTISRDNAKDSLYLQMSSLNSEDTAMYYCARQSEAYYGYDKRTWFAYWGQGTLVTVSS VL: DILLTQSPAILSVSPGTRVSFSCRASQSVGTSIHWYQQRPNGFPRLLIKYASESISGIPSRFSGSGSGTDFTLNINSVESEDIADYYCQQSKSWPLTFGAGTKLELKR", "values": [
      {"measurement": "effect on TF-1 cell proliferation in the presence of GM-CSF", "setting": "[3]", "value": "no inhibitory effect"}
    ]},
    {"molecule": "muCD123-3: murine anti-CD123 monoclonal antibody, HCVR SEQ ID NO: 26, LCVR SEQ ID NO: 27 (antibody, V domains shown) VH: EFQLQQSGPEVVKPGASVKMSCKASGYTFTSYVMHWMKQKPGQGLEWIGYIKPYKDGTKYNEKFKGKATLISDKPSSTAYMELSSLTSEDSAVYYCAREGENGYYDAMDYWGQGTSVTVSS VL: DIQMTQSPSSLSASLGGKVTITCKASQDINKYIAWYQHKPGKGPRLLIHYTSTLQPGIPSRFSGSGSGRDYSFSISNLEPEDIATYYCLQYDNLLYTFGGGTKLELKR", "values": [
      {"measurement": "effect on TF-1 cell proliferation in the presence of GM-CSF", "setting": "[3]", "value": "no inhibitory effect"}
    ]},
    {"molecule": "muCD123-6: murine anti-CD123 monoclonal antibody, HCVR SEQ ID NO: 28, LCVR SEQ ID NO: 29 (antibody, V domains shown) VH: EFQLQQSGPELVKPGASVKMSCKASGYIFTSSIMHWMKQKPGQGLEWIGYIKPYNDGTKYNEKFKGKATLTSDKSSSTANMELNSLTSEDSAVYYCAREGGNDYYDTMDYWGQGTSVTVSS VL: DIKMTQSPSSMYASLGERVTITCKASQDINSYLSWFQQKPGKSPKTLIYRVNRLVDGVPSRFSGSGSGQDYSLTISSLEYEDMGIYYCLQYDAFPYTFGGGTKLEIKR", "values": [
      {"measurement": "effect on TF-1 cell proliferation in the presence of GM-CSF", "setting": "[3]", "value": "no inhibitory effect"}
    ]},
    {"molecule": "chCD123-6: chimeric antibody: mouse HCVR/LCVR SEQ ID NOs: 28 and 29 with human IgG1 and Kappa constant sequences (antibody, V domains shown, human IgG1 and kappa constant regions) VH: EFQLQQSGPELVKPGASVKMSCKASGYIFTSSIMHWMKQKPGQGLEWIGYIKPYNDGTKYNEKFKGKATLTSDKSSSTANMELNSLTSEDSAVYYCAREGGNDYYDTMDYWGQGTSVTVSS VL: DIKMTQSPSSMYASLGERVTITCKASQDINSYLSWFQQKPGKSPKTLIYRVNRLVDGVPSRFSGSGSGQDYSLTISSLEYEDMGIYYCLQYDAFPYTFGGGTKLEIKR", "values": [
      {"measurement": "effect on TF-1 cell proliferation in the presence of GM-CSF", "setting": "[3]", "value": "no inhibitory effect"},
      {"measurement": "inhibition of IL-3-dependent proliferation of TF-1 cells (in words)", "setting": "[4]", "value": "completely inhibited at 1 nM"}
    ]}
  ]
}
